Series [1] has as its target Receptor tyrosine-protein kinase erbB-2 (Homo sapiens) (UniProt P04626). The series is described as follows: Inhibition of wild-type human partial length ERBB2 (K646 to V1225 residues) expressed in mammalian expression system at 1 uM by Kinomescan method relative to control.
Series [2] concerns the target Serine/threonine-protein kinase DCLK1 (Homo sapiens) (UniProt O15075). The experiment in a line: Inhibition of wild-type human partial length DCAMKL1 (L270 to A662 residues) expressed in mammalian expression system at 1 uM by Kinomescan method relative to control.
The target of series [3] is Ribosomal protein S6 kinase alpha-2 (Homo sapiens) (UniProt Q15349). The experiment in a line: Inhibition of wild-type human partial length N-terminal RSK3 kinase domain 1 (M1 to Q385 residues) expressed in bacterial expression system at 1 uM by Kinomescan method relative to control.
Sequence of Ribosomal protein S6 kinase alpha-2 (Homo sapiens) (Q15349 whole entry, the tested form may be a part): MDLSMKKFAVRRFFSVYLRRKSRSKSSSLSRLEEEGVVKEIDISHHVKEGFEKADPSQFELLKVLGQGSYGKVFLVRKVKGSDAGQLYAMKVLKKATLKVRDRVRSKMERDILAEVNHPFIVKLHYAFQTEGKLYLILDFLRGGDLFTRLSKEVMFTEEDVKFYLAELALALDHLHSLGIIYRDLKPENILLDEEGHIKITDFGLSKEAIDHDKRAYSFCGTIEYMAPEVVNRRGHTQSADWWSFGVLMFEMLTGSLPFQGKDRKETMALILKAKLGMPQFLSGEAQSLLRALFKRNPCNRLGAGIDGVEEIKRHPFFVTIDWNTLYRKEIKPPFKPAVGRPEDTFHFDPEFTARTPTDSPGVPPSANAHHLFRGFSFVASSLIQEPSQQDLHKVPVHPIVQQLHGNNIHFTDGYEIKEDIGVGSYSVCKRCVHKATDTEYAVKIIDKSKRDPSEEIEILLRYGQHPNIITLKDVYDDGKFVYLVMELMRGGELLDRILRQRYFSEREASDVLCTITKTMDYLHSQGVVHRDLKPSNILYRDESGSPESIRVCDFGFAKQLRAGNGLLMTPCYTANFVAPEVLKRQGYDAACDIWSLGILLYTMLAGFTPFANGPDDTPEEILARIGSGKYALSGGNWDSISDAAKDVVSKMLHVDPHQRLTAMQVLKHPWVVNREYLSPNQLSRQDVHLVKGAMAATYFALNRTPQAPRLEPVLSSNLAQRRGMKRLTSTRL
Series [4] has as its system Mast/stem cell growth factor receptor Kit (Homo sapiens), P10721 [D816V]. The experiment in a line: Inhibition of human partial length KIT D816V mutant (I571 to D952 residues) expressed in bacterial expression system at 1 uM by Kinomescan method relative to control.
For series [5], the target named is Serine/threonine-protein kinase PLK4 (Homo sapiens) (UniProt O00444). The series is described as follows: Inhibition of wild-type human partial length PLK4 (M1 to S273 residues) expressed in mammalian expression system at 1 uM by Kinomescan method relative to control.
The target of series [6] is Dual specificity mitogen-activated protein kinase kinase 1 (Homo sapiens) (UniProt Q02750). The series is described as follows: Inhibition of wild-type human full length MEK1 (M1 to V393 residues) expressed in mammalian expression system at 1 uM by Kinomescan method relative to control.
Series [7] has as its target Tyrosine-protein kinase JAK2 (Homo sapiens) (UniProt O60674). The experiment in a line: Inhibition of wild-type human partial length JAK2 JH1 catalytic domain (A829 to G1132 residues) expressed in mammalian expression system at 1 uM by Kinomescan method relative to control.
Series [8] has as its target Phosphatidylinositol 4,5-bisphosphate 3-kinase catalytic subunit beta isoform (Homo sapiens) (UniProt P42338). The series is described as follows: Inhibition of wild-type human partial length PIK3CB (P118 to S1070 residues) expressed in mammalian expression system at 1 uM by Kinomescan method relative to control.
Series [9] deals with Ephrin type-A receptor 7 (Homo sapiens) (UniProt Q15375). The series is described as follows: Inhibition of wild-type human partial length EPHA7 (Y608 to S912 residues) expressed in bacterial expression system at 1 uM by Kinomescan method relative to control.
The target in series [10] is Serine/threonine-protein kinase 38-like (Homo sapiens) (UniProt Q9Y2H1). The experiment in a line: Inhibition of wild-type human partial length NDR2 (N34 to E447 residues) expressed in bacterial expression system at 1 uM by Kinomescan method relative to control.
Sequence of Serine/threonine-protein kinase 38-like (Homo sapiens) (Q9Y2H1 2-464 limits assumed): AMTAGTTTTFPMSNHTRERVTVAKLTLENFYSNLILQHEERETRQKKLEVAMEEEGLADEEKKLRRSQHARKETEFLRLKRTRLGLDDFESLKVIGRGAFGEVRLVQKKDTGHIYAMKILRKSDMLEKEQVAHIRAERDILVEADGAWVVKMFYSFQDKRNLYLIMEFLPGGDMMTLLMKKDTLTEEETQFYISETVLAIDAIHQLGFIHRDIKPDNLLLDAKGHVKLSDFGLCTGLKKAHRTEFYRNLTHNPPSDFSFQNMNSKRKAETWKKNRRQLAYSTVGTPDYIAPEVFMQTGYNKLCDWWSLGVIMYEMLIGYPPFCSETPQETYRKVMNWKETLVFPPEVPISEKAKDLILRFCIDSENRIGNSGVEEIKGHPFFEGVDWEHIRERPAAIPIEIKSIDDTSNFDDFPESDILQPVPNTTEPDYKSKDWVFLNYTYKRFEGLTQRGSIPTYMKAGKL
Series [11] in a line: Aqueous kinetic solubility of the compound at pH 6.8 by shake flask assay. Type of series: physicochemical. Conditions: read-out: Kinetic_solubility.
Series [12] has as its target Ephrin type-A receptor 1 (Homo sapiens) (UniProt P21709). The series is described as follows: Inhibition of wild-type human partial length EPHA1 (V588 to I913 residues) expressed in bacterial expression system at 1 uM by Kinomescan method relative to control.
For series [13], the target named is Homeodomain-interacting protein kinase 1 (Homo sapiens) (UniProt Q86Z02). The series is described as follows: Inhibition of wild-type human partial length HIPK1 (M146 to I555 residues) expressed in mammalian expression system at 1 uM by Kinomescan method relative to control.
In series [14] the target is Tyrosine-protein kinase Fer (Homo sapiens) (UniProt P16591). The experiment in a line: Inhibition of wild-type human partial length FER (S542 to T822 residues) expressed in bacterial expression system at 1 uM by Kinomescan method relative to control.
Series [15] deals with Serine/threonine-protein kinase Nek7 (Homo sapiens) (UniProt Q8TDX7). The series is described as follows: Inhibition of wild-type human full length NEK7 (M1 to S302 residues) expressed in bacterial expression system at 1 uM by Kinomescan method relative to control.
Sequence of Serine/threonine-protein kinase Nek7 (Homo sapiens) (Q8TDX7 whole entry, looked up, the tested form may be a part): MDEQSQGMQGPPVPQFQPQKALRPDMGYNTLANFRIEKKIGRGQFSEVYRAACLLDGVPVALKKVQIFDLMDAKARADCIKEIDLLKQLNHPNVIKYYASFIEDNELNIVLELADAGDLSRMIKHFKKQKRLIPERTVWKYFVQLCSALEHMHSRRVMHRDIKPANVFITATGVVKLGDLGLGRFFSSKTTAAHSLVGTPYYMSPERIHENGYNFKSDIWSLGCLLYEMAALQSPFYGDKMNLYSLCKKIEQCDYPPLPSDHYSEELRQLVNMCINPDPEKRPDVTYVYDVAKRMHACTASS
For series [16], the target named is Death-associated protein kinase 2 (Homo sapiens) (UniProt Q9UIK4). The series is described as follows: Inhibition of wild-type human full length DAPK2 (M1 to S370 residues) expressed in bacterial expression system at 10 uM by Kinomescan method relative to control.
Series [17] has as its target Tyrosine-protein kinase Lck (Homo sapiens) (UniProt P06239). The series is described as follows: Inhibition of wild-type human partial length LCK (R207 to P509 residues) expressed in bacterial expression system at 10 uM by Kinomescan method relative to control.
Series [18] has as its target Mitogen-activated protein kinase 1 (Homo sapiens) (UniProt P28482). The series is described as follows: Inhibition of wild-type human full length ERK2 (M1 to S360 residues) expressed in bacterial expression system at 10 uM by Kinomescan method relative to control.
The subject of series [19] is Epidermal growth factor receptor (Homo sapiens), P00533 [G719C]. The series is described as follows: Inhibition of human partial length EGFR G719C mutant (R669 to V1011 residues) expressed in bacterial expression system at 10 uM by Kinomescan method relative to control.
Series [20] has as its target Cyclin-dependent kinase-like 1 (Homo sapiens) (UniProt Q00532). The experiment in a line: Inhibition of wild-type human full length CDKL1 (M1 to I358 residues) expressed in mammalian expression system at 10 uM by Kinomescan method relative to control.
In series [21] the target is Phosphatidylinositol 4-phosphate 5-kinase type-1 alpha (Homo sapiens) (UniProt Q99755). The experiment in a line: Inhibition of wild-type human full length PIP5K1A (M1 to H562 residues) expressed in bacterial expression system at 10 uM by Kinomescan method relative to control.
Sequence of Phosphatidylinositol 4-phosphate 5-kinase type-1 alpha (Homo sapiens) (Q99755 whole entry, the tested form may be a part): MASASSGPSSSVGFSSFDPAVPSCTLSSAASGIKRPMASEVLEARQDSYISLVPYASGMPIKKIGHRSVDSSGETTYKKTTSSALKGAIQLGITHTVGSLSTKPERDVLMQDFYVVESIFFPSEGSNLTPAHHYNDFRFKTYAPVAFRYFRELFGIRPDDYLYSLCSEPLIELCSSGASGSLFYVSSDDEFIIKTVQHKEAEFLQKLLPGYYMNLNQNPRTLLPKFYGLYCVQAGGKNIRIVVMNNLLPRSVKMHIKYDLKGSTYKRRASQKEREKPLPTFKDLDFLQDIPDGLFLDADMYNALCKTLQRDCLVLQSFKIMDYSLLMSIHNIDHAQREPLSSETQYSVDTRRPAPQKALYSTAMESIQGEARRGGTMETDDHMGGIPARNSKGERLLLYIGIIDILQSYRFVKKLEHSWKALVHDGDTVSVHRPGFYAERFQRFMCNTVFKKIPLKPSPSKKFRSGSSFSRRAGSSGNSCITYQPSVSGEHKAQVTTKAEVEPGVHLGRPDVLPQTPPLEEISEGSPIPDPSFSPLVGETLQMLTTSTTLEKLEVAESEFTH
In series [22] the target is Activin receptor type-1-like (Homo sapiens) (UniProt P37023). The experiment in a line: Inhibition of wild-type human ACVRL1 (L164 to Q503 residues) expressed in bacterial expression system at 10 uM by Kinomescan method relative to control.
The target of series [23] is Ephrin type-A receptor 6 (Homo sapiens) (UniProt Q9UF33). The series is described as follows: Inhibition of wild-type human partial length EPHA6 (Y700 to E1046 residues) expressed in bacterial expression system at 10 uM by Kinomescan method relative to control.
The target in series [24] is Ribosomal protein S6 kinase alpha-3 (Homo sapiens) (UniProt P51812). The series is described as follows: Inhibition of wild-type human partial length C-terminal RSK2 kinase domain 2 (V402 to S715 residues) expressed in mammalian expression system at 10 uM by Kinomescan method relative to control.
Series [25] addresses Misshapen-like kinase 1 (Homo sapiens) (UniProt Q8N4C8). The series is described as follows: Inhibition of wild-type human partial length MINK (M1 to K312 residues) expressed in mammalian expression system at 10 uM by Kinomescan method relative to control.
Series [26] has as its system Receptor-type tyrosine-protein kinase FLT3 (Homo sapiens), P36888 [UNDEFINED MUTATION]. The series is described as follows: Inhibition of human partial length FLT3 ITD mutant expressed in bacterial expression system at 10 uM by Kinomescan method relative to control.
In series [27] the target is Serine/threonine-protein kinase 24 (Homo sapiens) (UniProt Q9Y6E0). The series is described as follows: Inhibition of wild-type human partial length MST3 (A30 to S311 residues) expressed in bacterial expression system at 10 uM by Kinomescan method relative to control.

This is an account of results in ChEMBL document CHEMBL4387741, “Optimization of novel reversible Bruton's tyrosine kinase inhibitors identified using Tethering-fragment-based screens” (Bioorg Med Chem, 2019).

The structures appear in SMILES notation. Converted amounts (≈) assume the structure as drawn.

Sequence of Ephrin type-A receptor 1 (Homo sapiens) (P21709 whole entry, the tested form may be a part): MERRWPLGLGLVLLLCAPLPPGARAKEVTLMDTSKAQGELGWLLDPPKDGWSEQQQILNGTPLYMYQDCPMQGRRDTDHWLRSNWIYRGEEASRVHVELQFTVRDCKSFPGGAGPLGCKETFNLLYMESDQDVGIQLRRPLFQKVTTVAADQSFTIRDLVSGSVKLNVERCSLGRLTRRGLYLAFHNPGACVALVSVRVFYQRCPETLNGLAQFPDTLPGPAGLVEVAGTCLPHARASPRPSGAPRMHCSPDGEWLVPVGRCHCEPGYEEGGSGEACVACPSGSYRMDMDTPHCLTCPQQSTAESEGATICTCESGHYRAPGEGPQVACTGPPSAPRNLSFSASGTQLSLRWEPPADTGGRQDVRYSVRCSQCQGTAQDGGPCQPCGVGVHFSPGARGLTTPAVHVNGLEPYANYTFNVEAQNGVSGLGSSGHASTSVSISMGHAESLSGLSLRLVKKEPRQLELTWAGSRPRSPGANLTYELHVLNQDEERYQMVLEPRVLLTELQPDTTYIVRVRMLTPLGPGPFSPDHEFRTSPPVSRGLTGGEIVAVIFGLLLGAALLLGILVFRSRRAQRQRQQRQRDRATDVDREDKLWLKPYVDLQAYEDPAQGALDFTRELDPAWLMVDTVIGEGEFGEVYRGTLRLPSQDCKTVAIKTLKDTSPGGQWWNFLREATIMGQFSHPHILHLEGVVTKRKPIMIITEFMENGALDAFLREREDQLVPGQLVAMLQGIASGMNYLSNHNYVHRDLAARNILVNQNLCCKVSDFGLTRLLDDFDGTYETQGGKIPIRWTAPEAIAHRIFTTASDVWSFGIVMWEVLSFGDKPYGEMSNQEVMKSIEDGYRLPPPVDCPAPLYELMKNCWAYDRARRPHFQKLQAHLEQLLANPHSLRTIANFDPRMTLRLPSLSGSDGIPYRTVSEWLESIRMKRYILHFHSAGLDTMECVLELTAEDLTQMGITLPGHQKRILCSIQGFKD
Sequence of Serine/threonine-protein kinase DCLK1 (Homo sapiens) (O15075 whole entry, the tested form may be a part): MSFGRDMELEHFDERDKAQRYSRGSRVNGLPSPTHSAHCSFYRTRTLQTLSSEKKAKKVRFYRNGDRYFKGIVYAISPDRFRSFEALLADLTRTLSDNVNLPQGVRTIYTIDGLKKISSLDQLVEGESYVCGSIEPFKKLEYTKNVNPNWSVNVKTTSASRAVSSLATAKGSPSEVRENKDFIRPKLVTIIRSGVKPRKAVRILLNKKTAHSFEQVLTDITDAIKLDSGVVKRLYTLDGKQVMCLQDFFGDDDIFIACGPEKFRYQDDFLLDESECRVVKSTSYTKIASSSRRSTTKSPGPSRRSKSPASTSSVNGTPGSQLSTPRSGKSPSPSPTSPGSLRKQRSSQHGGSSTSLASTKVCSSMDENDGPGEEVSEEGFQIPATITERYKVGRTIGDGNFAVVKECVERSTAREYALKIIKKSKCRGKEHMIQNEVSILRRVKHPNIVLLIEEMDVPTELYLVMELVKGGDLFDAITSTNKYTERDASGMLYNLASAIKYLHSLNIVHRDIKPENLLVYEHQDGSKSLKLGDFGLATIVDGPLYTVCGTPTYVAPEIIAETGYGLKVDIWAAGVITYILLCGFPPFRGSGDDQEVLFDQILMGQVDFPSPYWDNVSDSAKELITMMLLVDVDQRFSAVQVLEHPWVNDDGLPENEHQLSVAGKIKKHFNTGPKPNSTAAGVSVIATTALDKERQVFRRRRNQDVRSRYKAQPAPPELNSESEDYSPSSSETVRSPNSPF
Sequence of Receptor tyrosine-protein kinase erbB-2 (Homo sapiens) (P04626 whole entry, the tested form may be a part): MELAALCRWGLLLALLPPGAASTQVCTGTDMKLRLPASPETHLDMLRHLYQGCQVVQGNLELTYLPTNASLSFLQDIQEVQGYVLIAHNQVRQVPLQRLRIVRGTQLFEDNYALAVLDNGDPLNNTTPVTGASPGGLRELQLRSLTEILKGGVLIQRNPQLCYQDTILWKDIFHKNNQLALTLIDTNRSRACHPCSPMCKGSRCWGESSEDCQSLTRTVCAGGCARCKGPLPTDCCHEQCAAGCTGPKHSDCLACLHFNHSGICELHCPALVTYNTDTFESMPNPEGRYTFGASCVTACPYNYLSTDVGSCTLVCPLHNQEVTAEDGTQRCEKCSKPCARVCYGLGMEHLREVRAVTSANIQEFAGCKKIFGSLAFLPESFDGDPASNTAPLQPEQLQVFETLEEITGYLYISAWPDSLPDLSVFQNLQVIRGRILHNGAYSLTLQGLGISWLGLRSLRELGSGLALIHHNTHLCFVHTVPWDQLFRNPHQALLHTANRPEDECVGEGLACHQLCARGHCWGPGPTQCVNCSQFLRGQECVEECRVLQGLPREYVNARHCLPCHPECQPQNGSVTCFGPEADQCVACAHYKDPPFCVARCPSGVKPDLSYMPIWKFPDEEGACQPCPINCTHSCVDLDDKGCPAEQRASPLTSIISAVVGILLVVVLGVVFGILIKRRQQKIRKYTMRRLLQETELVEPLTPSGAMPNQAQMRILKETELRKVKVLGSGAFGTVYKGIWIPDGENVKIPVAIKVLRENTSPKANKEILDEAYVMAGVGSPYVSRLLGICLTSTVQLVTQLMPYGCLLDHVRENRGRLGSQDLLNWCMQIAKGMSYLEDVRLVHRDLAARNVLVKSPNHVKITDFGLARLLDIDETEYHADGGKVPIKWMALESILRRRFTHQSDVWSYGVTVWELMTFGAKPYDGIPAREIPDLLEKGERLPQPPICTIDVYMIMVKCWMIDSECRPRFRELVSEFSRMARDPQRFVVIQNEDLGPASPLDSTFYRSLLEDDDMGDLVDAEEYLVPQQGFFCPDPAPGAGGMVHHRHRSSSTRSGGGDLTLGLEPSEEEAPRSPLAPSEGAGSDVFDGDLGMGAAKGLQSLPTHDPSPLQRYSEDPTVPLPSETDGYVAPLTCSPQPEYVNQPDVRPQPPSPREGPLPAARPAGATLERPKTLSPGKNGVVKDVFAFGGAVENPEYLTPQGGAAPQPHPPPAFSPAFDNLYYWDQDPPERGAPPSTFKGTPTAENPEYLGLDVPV

Regarding `O=C(Nc1cccc([C@@H]2CN(c3ncnc4[nH]ccc34)CCN2CCO)c1)Nc1c(F)cccc1N1CCCC1`, the inhibition in [1] amounted to 83%; in series [2], 36%; in series [3], 88%; in [4], 2%; in series [5] it was 6.3%; in series [6], 68%. Also, the inhibition in series [7] is 0%; in series [8], 100%; in series [9] it was 100%; in [10], 100%; in series [12], 100%; in series [13], 80%. Besides, the inhibition in [14] was found to be 82%; in series [15], 92%. The solubility kinetic in series [11] is 8 µg/mL (≈ 14.7 µM).
Take `O=C(Nc1cccc([C@H]2CCCN(c3ncnc4[nH]ccc34)C2)c1)Nc1ccccc1N1CCCC1`: the inhibition in series [16] is 7.1%; in series [17], 48%; in [18] it was 100%; in series [19], 86%; in series [20] it was 74%; in series [21], 5.1%. The inhibition turned out to be 100% in series [22]; 51% in series [23]; 100% in series [24]; 37% in series [25]; 8.5% in [26]; 56% in [27].
